According to ChEMBL document CHEMBL5724806, “Unraveling interindividual differences and functional consequences of gut microbial metabolism of immunosuppressants” (2024):

Legend:
Type in all cases: ADME
[1] = (§1) The drug is tested on the gut metagenome community of P-03 with ENA study accession number: PRJEB31790 for biotransformation under microaerobic condition. The drug concentrations were measured over 7 timepoints collected between 0 and 12 hours of incubation by liquid-chromatography-coupled mass spectrometry (LC–MS); set-up: dose 5 uM, timepoint 0, 0.75, 1.5, 3, 6, 9, 12 hours; details: 5 µM
[2] = The drug is tested on Actinomyces naeslundi strain: DSM43013 for biotransformation under microaerobic condition. The drug concentrations were measured over 6 timepoints collected between 0 and 12 hours of incubation by liquid-chromatography-coupled mass spectrometry (LC–MS); set-up: dose 5 uM, timepoint 0, 1.5, 3, 6, 9, 12 hours; details: actinomyces naeslundii, 5 µM
[3] = The drug is tested on Alloscardovia omnicolens strain: DSM21503 for biotransformation under microaerobic condition. The drug concentrations were measured over 6 timepoints collected between 0 and 12 hours of incubation by liquid-chromatography-coupled mass spectrometry (LC–MS); set-up: dose 5 uM, timepoint 0, 1.5, 3, 6, 9, 12 hours; details: 5 µM
[4] = as §1, with “P-01” for “P-03”; set-up: dose 5 uM, timepoint 0, 0.75, 1.5, 3, 6, 9, 12 hours; details: 5 µM
[5] = as §1, with “T-01” for “P-03”; set-up: dose 5 uM, timepoint 0, 0.75, 1.5, 3, 6, 9, 12 hours; details: 5 µM
[6] = The drug is tested on Enterococcus faecalis strain: ATCC29212 for biotransformation under anaerobic condition. The drug concentrations were measured over 6 timepoints collected between 0 and 12 hours of incubation by liquid-chromatography-coupled mass spectrometry (LC–MS); set-up: dose 5 uM, timepoint 0, 1.5, 3, 6, 9, 12 hours; details: 5 µM
[7] = The drug is tested on Streptococcus mitis strain: DSM12643 for biotransformation under anaerobic condition. The drug concentrations were measured over 6 timepoints collected between 0 and 12 hours of incubation by liquid-chromatography-coupled mass spectrometry (LC–MS); set-up: dose 5 uM, timepoint 0, 1.5, 3, 6, 9, 12 hours; details: 5 µM
[8] = The drug is tested on Clostridium scindens strain: DSM5676 for biotransformation under anaerobic condition. The drug concentrations were measured over 6 timepoints collected between 0 and 12 hours of incubation by liquid-chromatography-coupled mass spectrometry (LC–MS); set-up: dose 5 uM, timepoint 0, 1.5, 3, 6, 9, 12 hours; details: 5 µM
[9] = as §1, with “A-07” for “P-03”; set-up: dose 5 uM, timepoint 0, 0.75, 1.5, 3, 6, 9, 12 hours; details: 5 µM
[10] = The drug is tested on Bacteroides caccae strain: DSM19024 for biotransformation under anaerobic condition. The drug concentrations were measured over 6 timepoints collected between 0 and 12 hours of incubation by liquid-chromatography-coupled mass spectrometry (LC–MS); set-up: dose 5 uM, timepoint 0, 1.5, 3, 6, 9, 12 hours; details: 5 µM
[11] = as §1, with “A-08” for “P-03”, “anaerobic” for “microaerobic”; set-up: dose 5 uM, timepoint 0, 0.75, 1.5, 3, 6, 9, 12 hours; details: 5 µM
[12] = The drug is tested on Lactobacillus gasseri strain: DSM20243 for biotransformation under anaerobic condition. The drug concentrations were measured over 6 timepoints collected between 0 and 12 hours of incubation by liquid-chromatography-coupled mass spectrometry (LC–MS); set-up: dose 5 uM, timepoint 0, 1.5, 3, 6, 9, 12 hours; details: 5 µM
[13] = The drug is tested on Parabacteroides merdae strain: DSM19495 for biotransformation under anaerobic condition. The drug concentrations were measured over 6 timepoints collected between 0 and 12 hours of incubation by liquid-chromatography-coupled mass spectrometry (LC–MS); set-up: dose 5 uM, timepoint 0, 1.5, 3, 6, 9, 12 hours; details: 5 µM
[14] = as §1, with “T-02” for “P-03”, “anaerobic” for “microaerobic”; set-up: dose 5 uM, timepoint 0, 0.75, 1.5, 3, 6, 9, 12 hours; details: 5 µM
[15] = The drug is tested on Capnocytophaga ochracea strain: DSM7271 for biotransformation under microaerobic condition. The drug concentrations were measured over 6 timepoints collected between 0 and 12 hours of incubation by liquid-chromatography-coupled mass spectrometry (LC–MS); set-up: dose 5 uM, timepoint 0, 1.5, 3, 6, 9, 12 hours; details: 5 µM
[16] = as §1, with “T-03” for “P-03”, “anaerobic” for “microaerobic”; set-up: dose 5 uM, timepoint 0, 0.75, 1.5, 3, 6, 9, 12 hours; details: 5 µM
[17] = The drug is tested on Eubacterium eligens strain: DSM3376 for biotransformation under anaerobic condition. The drug concentrations were measured over 6 timepoints collected between 0 and 12 hours of incubation by liquid-chromatography-coupled mass spectrometry (LC–MS); set-up: dose 5 uM, timepoint 0, 1.5, 3, 6, 9, 12 hours; details: lachnospira eligens, 5 µM
[18] = The drug is tested on Bacteroides stercoris strain: HM 1036 for biotransformation under anaerobic condition. The drug concentrations were measured over 6 timepoints collected between 0 and 12 hours of incubation by liquid-chromatography-coupled mass spectrometry (LC–MS); set-up: dose 5 uM, timepoint 0, 1.5, 3, 6, 9, 12 hours; details: 5 µM
[19] = as §1, with “T-05” for “P-03”; set-up: dose 5 uM, timepoint 0, 0.75, 1.5, 3, 6, 9, 12 hours; details: 5 µM
[20] = The drug is tested on Streptococcus sanguinis strain: DSM20567 for biotransformation under microaerobic condition. The drug concentrations were measured over 6 timepoints collected between 0 and 12 hours of incubation by liquid-chromatography-coupled mass spectrometry (LC–MS); set-up: dose 5 uM, timepoint 0, 1.5, 3, 6, 9, 12 hours; details: 5 µM
[21] = The drug is tested on Lactobacillus fermentum strain: DSM20052 for biotransformation under microaerobic condition. The drug concentrations were measured over 6 timepoints collected between 0 and 12 hours of incubation by liquid-chromatography-coupled mass spectrometry (LC–MS); set-up: dose 5 uM, timepoint 0, 1.5, 3, 6, 9, 12 hours; details: limosilactobacillus fermentum, 5 µM
[22] = The drug is tested on Dorea formicigenerans strain: DSM3992 for biotransformation under anaerobic condition. The drug concentrations were measured over 6 timepoints collected between 0 and 12 hours of incubation by liquid-chromatography-coupled mass spectrometry (LC–MS); set-up: dose 5 uM, timepoint 0, 1.5, 3, 6, 9, 12 hours; details: 5 µM
[23] = as §1, with “A-04” for “P-03”, “anaerobic” for “microaerobic”; set-up: dose 5 uM, timepoint 0, 0.75, 1.5, 3, 6, 9, 12 hours; details: 5 µM
[24] = The drug is tested on Coprococcus comes strain: ATCC27758 for biotransformation under anaerobic condition. The drug concentrations were measured over 6 timepoints collected between 0 and 12 hours of incubation by liquid-chromatography-coupled mass spectrometry (LC–MS); set-up: dose 5 uM, timepoint 0, 1.5, 3, 6, 9, 12 hours; details: 5 µM
[25] = The drug is tested on Prevotella copri strain: DSM18205 for biotransformation under anaerobic condition. The drug concentrations were measured over 6 timepoints collected between 0 and 12 hours of incubation by liquid-chromatography-coupled mass spectrometry (LC–MS); set-up: dose 5 uM, timepoint 0, 1.5, 3, 6, 9, 12 hours; details: segatella copri, 5 µM
[26] = The drug is tested on Lactobacillus ruminis strain: ATCC25644 for biotransformation under microaerobic condition. The drug concentrations were measured over 6 timepoints collected between 0 and 12 hours of incubation by liquid-chromatography-coupled mass spectrometry (LC–MS); set-up: dose 5 uM, timepoint 0, 1.5, 3, 6, 9, 12 hours; details: ligilactobacillus ruminis, 5 µM
[27] = The drug is tested on Bifidobacterium adolescentis strain: DSM20083 for biotransformation under anaerobic condition. The drug concentrations were measured over 6 timepoints collected between 0 and 12 hours of incubation by liquid-chromatography-coupled mass spectrometry (LC–MS); set-up: dose 5 uM, timepoint 0, 1.5, 3, 6, 9, 12 hours; details: 5 µM
[28] = as §1, with “A-05” for “P-03”; set-up: dose 5 uM, timepoint 0, 0.75, 1.5, 3, 6, 9, 12 hours; details: 5 µM
[29] = as §1, with “A-10” for “P-03”; set-up: dose 5 uM, timepoint 0, 0.75, 1.5, 3, 6, 9, 12 hours; details: 5 µM
[30] = as §1, with “A-06” for “P-03”; set-up: dose 5 uM, timepoint 0, 0.75, 1.5, 3, 6, 9, 12 hours; details: 5 µM

SMILES	Bacterial Biotransformation [1]	Bacterial Biotransformation [2]	Bacterial Biotransformation [3]	Bacterial Biotransformation [4]	Bacterial Biotransformation [5]	Bacterial Biotransformation [6]	Bacterial Biotransformation [7]	Bacterial Biotransformation [8]	Bacterial Biotransformation [9]	Bacterial Biotransformation [10]	Bacterial Biotransformation [11]	Bacterial Biotransformation [12]	Bacterial Biotransformation [13]	Bacterial Biotransformation [14]	Bacterial Biotransformation [15]	Bacterial Biotransformation [16]	Bacterial Biotransformation [17]	Bacterial Biotransformation [18]	Bacterial Biotransformation [19]	Bacterial Biotransformation [20]	other results
CO[C@H]1C[C@@H]2CC[C@@H](C)[C@@](O)(O2)C(=O)C(=O)N2CCCC[C@H]2C(=O)O[C@H]([C@H](C)C[C@@H]2CC[C@@H](OCCO)[C@H](OC)C2)CC(=O)[C@H](C)/C=C(\C)[C@@H](O)[C@@H](OC)C(=O)[C@H](C)C[C@H](C)/C=C/C=C/C=C/1C [EVEROLIMUS]	Compound NOT metabolized	Compound NOT metabolized	Compound NOT metabolized	Compound NOT metabolized	Compound NOT metabolized	Compound metabolized	Compound NOT metabolized	Compound metabolized	Compound metabolized	Compound NOT metabolized	Compound metabolized	Compound NOT metabolized	Compound NOT metabolized	Compound metabolized	Compound NOT metabolized	Compound NOT metabolized	Compound NOT metabolized	Compound NOT metabolized	Compound NOT metabolized	Compound NOT metabolized	Bacterial Biotransformation [21]: Compound NOT metabolized; Bacterial Biotransformation [22]: Compound metabolized; Bacterial Biotransformation [23]: Compound metabolized; Bacterial Biotransformation [24]: Compound metabolized; Bacterial Biotransformation [25]: Compound NOT metabolized; Bacterial Biotransformation [26]: Compound NOT metabolized; Bacterial Biotransformation [27]: Compound NOT metabolized; Bacterial Biotransformation [28]: Compound metabolized; Bacterial Biotransformation [29]: Compound NOT metabolized; Bacterial Biotransformation [30]: Compound metabolized
NS(=O)(=O)c1cc(C(=O)O)c(NCc2ccco2)cc1Cl [FUROSEMIDE]	Compound NOT metabolized	Compound NOT metabolized	Compound NOT metabolized	Compound NOT metabolized	Compound NOT metabolized	Compound NOT metabolized	Compound NOT metabolized	Compound NOT metabolized	Compound NOT metabolized	Compound NOT metabolized	Compound NOT metabolized	Compound NOT metabolized	Compound NOT metabolized	Compound NOT metabolized	Compound NOT metabolized	Compound NOT metabolized	Compound NOT metabolized	Compound NOT metabolized	Compound NOT metabolized	Compound NOT metabolized	Bacterial Biotransformation [21]: Compound NOT metabolized; Bacterial Biotransformation [22]: Compound NOT metabolized; Bacterial Biotransformation [23]: Compound NOT metabolized; Bacterial Biotransformation [24]: Compound NOT metabolized; Bacterial Biotransformation [25]: Compound NOT metabolized; Bacterial Biotransformation [26]: Compound NOT metabolized; Bacterial Biotransformation [27]: Compound NOT metabolized; Bacterial Biotransformation [28]: Compound NOT metabolized; Bacterial Biotransformation [29]: Compound NOT metabolized; Bacterial Biotransformation [30]: Compound NOT metabolized
C[C@]12CCC(=O)C=C1CC[C@@H]1[C@@H]2[C@@H](O)C[C@@]2(C)[C@H]1CC[C@]2(O)C(=O)CO [HYDROCORTISONE]	Compound metabolized	Compound NOT metabolized	Compound NOT metabolized	Compound metabolized	Compound metabolized	Compound NOT metabolized	Compound NOT metabolized	Compound metabolized	Compound metabolized	Compound NOT metabolized	Compound metabolized	Compound NOT metabolized	Compound NOT metabolized	Compound metabolized	Compound NOT metabolized	Compound NOT metabolized	Compound NOT metabolized	Compound NOT metabolized	Compound metabolized	Compound NOT metabolized	Bacterial Biotransformation [21]: Compound NOT metabolized; Bacterial Biotransformation [22]: Compound NOT metabolized; Bacterial Biotransformation [23]: Compound metabolized; Bacterial Biotransformation [24]: Compound NOT metabolized; Bacterial Biotransformation [25]: Compound NOT metabolized; Bacterial Biotransformation [26]: Compound NOT metabolized; Bacterial Biotransformation [27]: Compound NOT metabolized; Bacterial Biotransformation [28]: Compound metabolized; Bacterial Biotransformation [29]: Compound metabolized; Bacterial Biotransformation [30]: Compound metabolized
